According to patent publication US6468537B1, “Localization of major peptide autoepitopes for nucleosome specific T cells of systemic lupus erythematosus” (The Board of Trustees of Northwestern University, priority 1999, dated 2002):

Assays:
[1] = test system: anti-DNA autoantibodies of lupus; conditions: cited from earlier work
[2] = test system: splenic T cells of pre-nephritic SNF1 mice; conditions: cited from earlier work
SNF1 mice [3] = assay: Brief therapy with nucleosomal histone peptides (long-term experiments): incidence of severe nephritis; assay type: in vivo, mouse
Experimental: (§1) Long-term experiments used 12 week-old, autoimmune, but pre-nephritic SNF1 female mice. Nine mice per peptide test group were injected intravenously with either a saline (solution) or a peptide solution comprising saline and 300 micrograms of one of H2B10-33, H416-39, and H471-94. Each mouse received three subsequent injections of either the saline solution or one of the peptide solutions at two-week intervals. The mice were monitored weekly for proteinuria using an Albustix kit (VWR Scientific, Chicago, Ill.), and sacrificed upon the development of persistent proteinuria. Persistent protenuria was identified as an amount of protein in urine that is equivalent to or greater than 300 milligrams per deciliter, and is a primary indication of severe kidney disease and damage associated with nephritis. Sera were collected from each mouse and the IgG anti-nuclear autoantibodies determined. Blood urea nitrogen (BUN) was measured by Azostix (Miles, Ekhart, Ind.). Immune complex deposition and glomerulonephritis in the kidney were detected by staining with Hematoxylin and Eosin and anti-mouse Ig. These procedures were carried out as previously described (Mohan et al., 1993, J. Exp. Med. 177:1367; Mohan et al., 1995, J. Immunol. 154:1470; Eastcott et al., 1983, J. Immunol. 131:2232; Adams et al., 1991, Proc. Natl. Acad. Sci. USA 88:11271; Kalled et al., 1998, J. Immunol. 160:2158; Gaynor et al., 1997, Proc. Natl. Acad. Sci. USA 94:1955).

SNF1 mice [4] = assay: Short-term tolerance experiments: grading of lupus nephritis at sacrifice; assay type: in vivo, mouse; conditions: short-term batch, at sacrifice two weeks after last injection
Experimental: Short-term experiments were conducted to test the early immunological consequences of tolerance therapy. Twelve week old SNF1 mice were injected once a week for four weeks with either a saline solution or a peptide solution comprising saline and 300 micrograms of one of the above described peptides. Mice were sacrificed at two weeks after the last injection. Presence of autoimmune T and B cells was analyzed and renal lesions were graded.

CD4+ T cells = assay: Helper assay: CD4+ T cells from peptide-injected mice co-cultured with B cells from unmanipulated SNF1 mice; assay type: cell-based, mouse; conditions: for reduction of anti-ssDNA antibody production relative to control group / reduction of anti-dsDNA antibody production compared with control group: T cells from treated mice + B cells from unmanipulated mice; for reduction of anti-dsDNA antibody production compared with control group: 7 days; for increase in help for anti-dsDNA antibody production following addition of rIL-2: rIL-2 added at beginning of 7-day culture
Excerpt: (§2) Levels of IgG class autoantibodies specific for single-stranded DNA (ssDNA), double-stranded DNA (dsDNA), histones, and nucleosomes (i.e. histone-DNA complexes), in culture supernatants or serum, were estimated using an enzyme-linked immunosorbent assay (ELISA). Anti-DNA mAbs 564 and 205 were used to generate standard curves as previously described (Mohan et al., 1993, J. Exp. Med. 177:1367; Kaliyaperumal et al., 1996, J. Exp. Med. 183:2459; Mohan et al., 1995, J. Immunol. 154:1470; Adams et al., 1991, Proc. Natl. Acad. Sci. USA 88:11271). Sera were diluted 1:400 and heat-inactivated before use according to standard procedures. Sera from normal SWR mice were used as the negative control. Total polyclonal IgG levels were also measured by ELISA as previously described (Mohan et al., 1993, J. Exp. Med. 177:1367; Mohan et al., 1995, J. Immunol. 154:1470; Adams et al., 1991, Proc. Natl. Acad. Sci. USA 88:11271).
(§3) T-cells from peptide-treated mice used in the short-term experiments were co-cultured with splenic B cells from unmanipulated mice. Conversely, T cells from unmanipulated SNF1 mice (i.e. control mice) were co-cultured with splenic B cells from tolerized (i.e. peptide-injected) mice. Each of the cell types was seeded in 24-well plates at an initial concentration of 2.5×10^6 cells per well. Cultures were maintained for 7 days, as previously described (Datta et al., 1987, J. Exp. Med. 165:1252; Sainis and Datta, 1988, J. Immunol. 140:2215). B cells from unmanipulated or tolerized animals were cultured alone to measure baseline autoantibody production. Culture supernatants were collected, freeze-thawed, and assayed by ELISA for antibodies against ssDNA, dsDNA, histones and nucleosomes. For studies involving stimulation of B cells by soluble CD40 ligand, CD40L-CD8 fusion protein (Wortis et al., 1995, Proc. Natl. Acad. Sci. USA 92:3348) was added to either the co-culture wells or the wells with B cells alone and maintained in the medium for the entire 7-day culture period.

B cells [5] = assay: Helper assay: B cells from peptide-injected mice co-cultured with CD4+ T cells from unmanipulated SNF1 mice; assay type: cell-based, mouse
Excerpt: as §2, §3

B cells [6] = assay: Stimulation of purified B cells from peptide-injected mice (anti-Ig (Fab')2, rIL-4, CD40L, LPS); assay type: cell-based, mouse
Excerpt: as §2, §3

SNF1 mice [7] = assay: IgG anti-nuclear autoantibody and total IgG levels in sera of peptide-injected mice (ELISA); assay type: in vivo, mouse; conditions: sera 1:400
Experimental: as §1, §2

SNF1 mice [8] = assay: Chronic therapy of established glomerulonephritis with nucleosomal peptides; assay type: in vivo, mouse; conditions: for survival: by 26 months age; for mice alive: two months after start of treatment (all controls dead), 300 micrograms i.p. monthly, 18-month old mice
Experimental: Six mice per group were injected intraperitoneally once each month with either a saline solution or a peptide solution comprising saline and 300 micrograms of one of the identified peptides. The endpoint of these experiments was the development of moribund state due to renal failure.

HLA-DR = conditions: cited from earlier work
[9] = at 28 weeks of age, 300 micrograms i.v., four injections at two-week intervals from 12 weeks
[10] = at 36-38 weeks of age, control 88.8%
[11] = rIL-2 added, not significant relative to control
[12] = at 36 weeks of age, control 26±3.2
[13] = at the start of treatment (12 weeks), control 5.5±0.3

| Substance | incidence of severe nephritis (SNF1 mice [3]; [9]) | incidence of severe nephritis (SNF1 mice [3]; [10]) | reduction of anti-ssDNA antibody production relative to control group (CD4+ T cells) | reduction of anti-dsDNA antibody production compared with control group (CD4+ T cells) | increase in help for anti-dsDNA antibody production following addition of rIL-2 (CD4+ T cells) | production of anti-nucleosome antibodies relative to control group (B cells [5]) | antibody production by B cells stimulated with anti-Ig (Fab')2 in presence or absence of rIL-4 (B cells [6]) | serum anti-dsDNA antibody level (SNF1 mice [7]; [12]) | serum anti-dsDNA antibody level (SNF1 mice [7]; [13]) | survival (SNF1 mice [8]) | mice alive (SNF1 mice [8]) | binding to HLA-DR (HLA-DR) | also measured |
| --- | --- | --- | --- | --- | --- | --- | --- | --- | --- | --- | --- | --- | --- |
| H385-102: epitope in nucleosomal core histone H3, amino acid positions 85-102 (QSSAVMALQEACEAYLVG; UniProt P68431 86-103, looked up, fragment) |  |  |  |  |  |  |  |  |  |  |  |  | binding by anti-DNA autoantibodies [1]: also bound by spontaneously arising anti-DNA autoantibodies of lupus; response of splenic T cells [2]: spontaneously responded |
| H416-39: nucleosomal histone peptide of histone 4 protein (H4), amino acid positions 16-39 | did not develop disease | 11.1% | approximately 55% | approximately 50% | 35% | reduced by three fold | did not respond by increasing antibody production | 13.0±4.0 units | 9.0±2.1 units | all of the H416-39 group mice remained alive | none of the mice in H416-39 group had died | have actually been shown to bind HLA-DR | incidence of severe nephritis (SNF1 mice [3]; at 54 weeks of age): 55.5%; Percent Incidence, Grading of Lupus Nephritis 0 (SNF1 mice [4]): 33.3; Percent Incidence, Grading of Lupus Nephritis 1+ (SNF1 mice [4]): 66.6; increase in anti-nucleosome antibodies following addition of rIL-2 (CD4+ T cells; [11]): 20%; increase in anti-ssDNA antibodies following addition of rIL-2 (CD4+ T cells; [11]): 30%; ability of B cells to produce IgG autoantibodies in presence of T helper cells (B cells [5]): diminished levels of all autoantibodies; reduction of anti-histone antibody production relative to control group (B cells [5]): approximately 4 fold; level of anti-dsDNA antibodies produced by B cells (B cells [5]; control 160±18.5): 45±10.1 units per deciliter; production of anti-ssDNA antibodies by B cells (B cells [5]; control 170±10.9 units per deciliter): 60±7.9 units; antibody production by B cells with addition of CD40L and rIL-4 (B cells [6]): did not produce significant amounts of antibodies; animals exhibiting a reduction in proteinuria levels (SNF1 mice [8]; during the course of the experiment): 66.6%; proteinuria level after reduction (SNF1 mice [8]; reduced from 300-1000 milligrams per deciliter): less than 100 milligrams per deciliter |
| H471-94: histone 4 protein (H4) amino acids 71-94 | 33.3% | 33.3% | not significant | approximately 50% | did not exhibit any increase | remained significantly low | could be stimulated to produce autoantibodies at levels similar to those of the control mice | 17.1±2.7 units | 5.4±1.1 units | all of the H471-94 group mice had succumbed to renal disease | 66.6% | have actually been shown to bind HLA-DR | Percent Incidence, Grading of Lupus Nephritis 2+ (SNF1 mice [4]): 66.6; Percent Incidence, Grading of Lupus Nephritis 3+ (SNF1 mice [4]): 33.3; production of anti-histone antibodies relative to control group (B cells [5]): remained significantly low |
